Test results as given in patent US8906897B2, “Antimicrobial agents based on hemin derivatives” (Obschestvo S Ogranichennoi Otvetstvennostiyu …, priority 2009, dated 2014).

Experiments:
Candida albicans No. 927 = assay: Antifungal activity, culture growth with pH indicator; assay type: cell-based; parameters: key to Test culture growth at various dilutions of the agent: (−) No growth; the indicator is blue; (±) Weak growth; the indicator is yellow, but the precipitate of grown cells looks as a diffuse spot; (+) Strong growth; the indicator is yellow, and the cell precipitate looks as a compact spot
Description: (§1) The subjects of action were Cryptococcus neoformans No. 3465 museum strain cells and Candida albicans No. 927 museum strain cells grown for one day on a glucose-peptone-yeast medium at 32° C. The reference compounds were the following antimycotics: pimafucin, amphotericin, and fluconazole.
(§2) Experiments were carried out on round-bottomed 96-well plates (Lenmedpolimer) in two replicas. To the first column (0), added was 10 μL of the stock solution of a water-soluble agent with concentrations of 10^−2 to 10^−3 mol/L; to the second column, added was also the same 10 μL plus 10 μL of the solvent corresponding to the given compound, suspended, 10 μL was transferred to the next well, and so on to the 8th well of the row. Stock solutions of water-insoluble compounds of general formula (I) (compounds V, VIII, XII, XIII, XIV, and hemin) were prepared in DMSO and were diluted with DMSO and the medium. DMSO concentrations in the reaction mixture in a well were ≦5%.
(§3) Then, to every well added was 190 μL of a Cr. neoformans cell culture suspension in a synthetic nutritional medium (so that the final cell concentration was approximately 10^3 CFU/mL), this medium containing Bromocresol Blue as a pH-indicator (pH: 5.5; indicator color: blue). As pH reduced to 4.5, the indicator in the culture changed its color to yellow, thereby indicating fungal cell growth. The synthetic medium comprised the following components: salts, amino acids, microelements, vitamins, an antibiotic, and glucose (30 components altogether) [Yarrow, D., “Methods for the Isolation, Maintenance and Identification of Yeasts,” in: The Yeasts. A Taxonomic Study, Ed. by Kurtsman, C. P, and Fell, M., Elsevier, 1998, pp. 77-100]. After being inoculated with a Cr. neoformans cell suspension, the plate was incubated at 32° C. for 1 h with stirring, then transferred to a stationary thermostat and incubated for two and five days at 27° C. After being inoculated with a C. albicans cell suspension, the plates were incubated for 1 h at 32° C. with stirring, then transferred to a stationary thermostat and incubated for one and four days at 27° C.

[1] = tested on: Cryptococcus neoformans No. 3465; assay: as above; assay type: cell-based; parameters: key: (−) No growth; the indicator is blue; (±) Weak growth; the indicator is yellow, but the precipitate of grown cells looks as a diffuse spot; (+) Strong growth; the indicator is yellow, and the cell precipitate looks as a compact spot
Description: as §1, §2, §3

[2] = dilution : 16 of 5.00 × 10^−4 M
[3] = dilution : 32 of 5.00 × 10^−4 M
[4] = dilution : 64 of 5.00 × 10^−4 M
[5] = dilution : 128 of 5.00 × 10^−4 M

## N^α-[6(7)-(Protohemin IX)-yl]-ArgArgTrpTrpArgPhe-OH ({protohemin IX}-RRWWRF-OH) [Compound XX]
Candida albicans No. 927; dilution 0: 1 × 10^−4 M
  Test culture growth at various dilutions of the agent: ±
Candida albicans No. 927; dilution : 2 of 1 × 10^−4 M
  Test culture growth at various dilutions of the agent: ±
Candida albicans No. 927; dilution : 4 of 1 × 10^−4 M
  Test culture growth at various dilutions of the agent: ±
Candida albicans No. 927; dilution : 8 of 1 × 10^−4 M
  Test culture growth at various dilutions of the agent: ±
Candida albicans No. 927; dilution : 16 of 1 × 10^−4 M
  Test culture growth at various dilutions of the agent: ±
Candida albicans No. 927; dilution : 32 of 1 × 10^−4 M
  Test culture growth at various dilutions of the agent: ±
Candida albicans No. 927; dilution : 64 of 1 × 10^−4 M
  Test culture growth at various dilutions of the agent: ±

## C[C@@H]1[C@H](O)[C@@H](C)/C=C/C=C/C=C/C=C/C=C/C=C/C=C/[C@H](O[C@@H]2O[C@H](C)[C@@H](O)[C@H](N)[C@@H]2O)C[C@@H]2O[C@](O)(C[C@@H](O)C[C@@H](O)[C@H](O)CC[C@@H](O)C[C@@H](O)CC(=O)O[C@H]1C)C[C@H](O)[C@H]2C(=O)O [Amphotericin B, reference compound]
[1]; dilution 0: 5.00 × 10^−4 M
  Test culture growth at various dilutions of the agent on day 2: −**
[1]; dilution : 2 of 5.00 × 10^−4 M
  Test culture growth at various dilutions of the agent on day 2: −
[1]; dilution : 4 of 5.00 × 10^−4 M
  Test culture growth at various dilutions of the agent on day 2: −
[1]; dilution : 8 of 5.00 × 10^−4 M
  Test culture growth at various dilutions of the agent on day 2: −
[1]; [2]
  Test culture growth at various dilutions of the agent on day 2: −
[1]; [3]
  Test culture growth at various dilutions of the agent on day 2: −
[1]; [4]
  Test culture growth at various dilutions of the agent on day 2: −
[1]; [5]
  Test culture growth at various dilutions of the agent on day 2: −

## C[C@@H]1C/C=C/C=C/C=C/C=C/[C@H](O[C@@H]2O[C@H](C)[C@@H](O)[C@H](N)[C@@H]2O)C[C@@H]2O[C@](O)(C[C@@H](O)C[C@H]3O[C@@H]3/C=C/C(=O)O1)C[C@H](O)[C@H]2C(=O)O [Pimafucin, reference compound]
Candida albicans No. 927; dilution 0: 1 × 10^−4 M
  Test culture growth at various dilutions of the agent: −
Candida albicans No. 927; dilution : 2 of 1 × 10^−4 M
  Test culture growth at various dilutions of the agent: −
Candida albicans No. 927; dilution : 4 of 1 × 10^−4 M
  Test culture growth at various dilutions of the agent: −
Candida albicans No. 927; dilution : 8 of 1 × 10^−4 M
  Test culture growth at various dilutions of the agent: −
Candida albicans No. 927; dilution : 16 of 1 × 10^−4 M
  Test culture growth at various dilutions of the agent: −
Candida albicans No. 927; dilution : 32 of 1 × 10^−4 M
  Test culture growth at various dilutions of the agent: +
Candida albicans No. 927; dilution : 64 of 1 × 10^−4 M
  Test culture growth at various dilutions of the agent: +

## OC(Cn1cncn1)(Cn1cncn1)c1ccc(F)cc1F [Fluconazole, reference compound]
[1]; dilution 0: 5.00 × 10^−4 M
  Test culture growth at various dilutions of the agent on day 2: ±**
[1]; dilution : 2 of 5.00 × 10^−4 M
  Test culture growth at various dilutions of the agent on day 2: ±
[1]; dilution : 4 of 5.00 × 10^−4 M
  Test culture growth at various dilutions of the agent on day 2: ±
[1]; dilution : 8 of 5.00 × 10^−4 M
  Test culture growth at various dilutions of the agent on day 2: +
[1]; [2]
  Test culture growth at various dilutions of the agent on day 2: +
[1]; [3]
  Test culture growth at various dilutions of the agent on day 2: +
[1]; [4]
  Test culture growth at various dilutions of the agent on day 2: +
[1]; [5]
  Test culture growth at various dilutions of the agent on day 2: +
